The results in this text go back to ChEMBL document CHEMBL3991601, “The target landscape of clinical kinase drugs” (Science, 2017).

SMILES strings stand for the structures. Calls of active or inactive are those of the source. Cut-off read from the data, not from the text of the source, for most assays here: actives have a measured Kd and inactives only a lower limit.

Experiment [1] concerns the target T1, Glycogen phosphorylase, liver form (Homo sapiens, UniProt P06737).
T1 sequence (P06737 whole entry): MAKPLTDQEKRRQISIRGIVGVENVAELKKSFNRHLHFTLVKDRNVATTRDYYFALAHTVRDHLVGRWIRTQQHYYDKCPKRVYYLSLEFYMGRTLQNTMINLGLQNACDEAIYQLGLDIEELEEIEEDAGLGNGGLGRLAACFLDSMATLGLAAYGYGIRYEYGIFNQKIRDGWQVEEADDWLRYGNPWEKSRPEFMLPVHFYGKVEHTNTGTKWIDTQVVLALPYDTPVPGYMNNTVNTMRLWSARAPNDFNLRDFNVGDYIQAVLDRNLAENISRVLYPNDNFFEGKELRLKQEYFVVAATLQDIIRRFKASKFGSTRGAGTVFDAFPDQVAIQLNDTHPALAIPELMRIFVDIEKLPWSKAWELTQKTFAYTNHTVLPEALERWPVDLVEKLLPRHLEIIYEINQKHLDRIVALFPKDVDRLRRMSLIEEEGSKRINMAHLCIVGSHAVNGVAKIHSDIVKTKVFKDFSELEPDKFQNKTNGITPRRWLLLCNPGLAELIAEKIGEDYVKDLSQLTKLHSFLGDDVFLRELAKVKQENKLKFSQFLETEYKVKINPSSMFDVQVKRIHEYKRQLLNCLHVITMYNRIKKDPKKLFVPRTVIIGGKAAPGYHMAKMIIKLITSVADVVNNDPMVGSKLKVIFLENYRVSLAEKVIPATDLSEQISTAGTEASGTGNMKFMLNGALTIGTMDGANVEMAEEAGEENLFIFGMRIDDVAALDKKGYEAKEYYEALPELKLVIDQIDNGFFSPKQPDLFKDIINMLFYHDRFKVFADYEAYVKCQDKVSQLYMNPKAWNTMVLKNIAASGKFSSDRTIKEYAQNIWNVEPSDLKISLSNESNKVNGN
In kind it is subcellular, K-562, COLO 205, SK-N-BE(2) and MV-4-11, Cell lysate. Conditions: read-out: Kd apparent.

Experiment [2] addresses Bone morphogenetic protein receptor type-1B (Homo sapiens, UniProt O00238).
For experiment [3], the target named is DnaJ homolog subfamily A member 1 (Homo sapiens, UniProt P31689).
Sequence of DnaJ homolog subfamily A member 1 (P31689 whole entry): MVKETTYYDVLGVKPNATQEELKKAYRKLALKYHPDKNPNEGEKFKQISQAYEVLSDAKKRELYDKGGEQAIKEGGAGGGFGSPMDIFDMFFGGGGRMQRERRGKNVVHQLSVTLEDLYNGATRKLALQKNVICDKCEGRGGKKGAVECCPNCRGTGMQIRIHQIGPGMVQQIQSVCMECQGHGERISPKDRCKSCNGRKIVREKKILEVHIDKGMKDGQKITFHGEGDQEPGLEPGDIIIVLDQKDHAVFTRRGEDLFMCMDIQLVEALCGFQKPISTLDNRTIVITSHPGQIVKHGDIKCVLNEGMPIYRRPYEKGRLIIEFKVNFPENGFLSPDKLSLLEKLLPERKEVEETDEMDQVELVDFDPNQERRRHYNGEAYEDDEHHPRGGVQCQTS
For experiment [4], the target named is Tyrosine-protein kinase Fer (Homo sapiens, UniProt P16591).
Sequence of Tyrosine-protein kinase Fer (P16591 whole entry): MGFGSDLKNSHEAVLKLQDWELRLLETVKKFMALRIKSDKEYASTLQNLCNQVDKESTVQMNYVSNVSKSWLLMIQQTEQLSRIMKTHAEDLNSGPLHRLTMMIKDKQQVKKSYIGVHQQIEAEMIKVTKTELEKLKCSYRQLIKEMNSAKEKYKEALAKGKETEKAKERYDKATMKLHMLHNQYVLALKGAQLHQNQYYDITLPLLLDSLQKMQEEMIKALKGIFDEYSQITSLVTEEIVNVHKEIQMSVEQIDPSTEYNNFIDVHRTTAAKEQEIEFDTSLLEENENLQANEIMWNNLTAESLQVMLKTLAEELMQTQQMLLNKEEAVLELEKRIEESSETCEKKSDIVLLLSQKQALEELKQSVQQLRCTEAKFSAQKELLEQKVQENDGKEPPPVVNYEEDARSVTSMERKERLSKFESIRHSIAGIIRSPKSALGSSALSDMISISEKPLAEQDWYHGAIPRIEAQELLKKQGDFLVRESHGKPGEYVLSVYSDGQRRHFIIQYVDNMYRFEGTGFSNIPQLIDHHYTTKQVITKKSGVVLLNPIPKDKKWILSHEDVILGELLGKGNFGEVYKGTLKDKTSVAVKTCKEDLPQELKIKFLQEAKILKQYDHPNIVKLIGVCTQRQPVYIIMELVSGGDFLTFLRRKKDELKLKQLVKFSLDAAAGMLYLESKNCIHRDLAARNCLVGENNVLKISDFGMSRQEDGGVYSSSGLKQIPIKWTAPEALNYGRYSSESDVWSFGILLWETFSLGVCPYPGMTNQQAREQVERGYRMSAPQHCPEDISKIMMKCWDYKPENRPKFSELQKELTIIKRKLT
For experiment [5], the target named is T2, Interleukin-1 receptor-associated kinase 4 (Homo sapiens, UniProt Q9NWZ3).
T2 sequence (Q9NWZ3 whole entry): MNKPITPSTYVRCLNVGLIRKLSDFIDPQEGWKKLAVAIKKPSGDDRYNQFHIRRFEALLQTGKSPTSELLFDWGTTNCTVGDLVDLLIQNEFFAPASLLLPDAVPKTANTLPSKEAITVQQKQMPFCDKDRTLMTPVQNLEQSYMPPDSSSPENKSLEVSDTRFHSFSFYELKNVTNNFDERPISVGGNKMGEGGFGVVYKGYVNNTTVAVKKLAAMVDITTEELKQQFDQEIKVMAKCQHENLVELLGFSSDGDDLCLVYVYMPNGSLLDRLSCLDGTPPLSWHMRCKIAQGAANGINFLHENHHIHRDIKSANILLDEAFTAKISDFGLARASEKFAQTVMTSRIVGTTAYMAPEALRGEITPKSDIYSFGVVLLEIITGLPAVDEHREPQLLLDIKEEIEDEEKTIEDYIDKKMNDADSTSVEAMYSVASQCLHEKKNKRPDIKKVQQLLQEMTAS

For experiment [6], the target named is Mitogen-activated protein kinase 8 (Homo sapiens, UniProt P45983).
Sequence of Mitogen-activated protein kinase 8 (P45983 whole entry): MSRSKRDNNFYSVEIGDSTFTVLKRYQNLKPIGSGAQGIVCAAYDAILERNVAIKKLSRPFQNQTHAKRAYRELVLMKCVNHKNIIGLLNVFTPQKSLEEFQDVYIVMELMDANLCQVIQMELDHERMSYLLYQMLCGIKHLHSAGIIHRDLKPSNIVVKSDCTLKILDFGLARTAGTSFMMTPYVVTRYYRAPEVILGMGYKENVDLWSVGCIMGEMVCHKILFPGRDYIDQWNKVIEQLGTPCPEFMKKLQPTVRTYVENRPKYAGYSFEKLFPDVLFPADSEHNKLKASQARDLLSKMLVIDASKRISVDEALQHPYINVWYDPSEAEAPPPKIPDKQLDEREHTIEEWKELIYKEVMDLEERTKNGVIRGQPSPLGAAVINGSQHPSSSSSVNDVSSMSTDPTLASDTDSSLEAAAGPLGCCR
Experiment [7] has as its target T3, Dynamin-like GTPase OPA1, mitochondrial (Homo sapiens, UniProt O60313).
T3 sequence (O60313 whole entry): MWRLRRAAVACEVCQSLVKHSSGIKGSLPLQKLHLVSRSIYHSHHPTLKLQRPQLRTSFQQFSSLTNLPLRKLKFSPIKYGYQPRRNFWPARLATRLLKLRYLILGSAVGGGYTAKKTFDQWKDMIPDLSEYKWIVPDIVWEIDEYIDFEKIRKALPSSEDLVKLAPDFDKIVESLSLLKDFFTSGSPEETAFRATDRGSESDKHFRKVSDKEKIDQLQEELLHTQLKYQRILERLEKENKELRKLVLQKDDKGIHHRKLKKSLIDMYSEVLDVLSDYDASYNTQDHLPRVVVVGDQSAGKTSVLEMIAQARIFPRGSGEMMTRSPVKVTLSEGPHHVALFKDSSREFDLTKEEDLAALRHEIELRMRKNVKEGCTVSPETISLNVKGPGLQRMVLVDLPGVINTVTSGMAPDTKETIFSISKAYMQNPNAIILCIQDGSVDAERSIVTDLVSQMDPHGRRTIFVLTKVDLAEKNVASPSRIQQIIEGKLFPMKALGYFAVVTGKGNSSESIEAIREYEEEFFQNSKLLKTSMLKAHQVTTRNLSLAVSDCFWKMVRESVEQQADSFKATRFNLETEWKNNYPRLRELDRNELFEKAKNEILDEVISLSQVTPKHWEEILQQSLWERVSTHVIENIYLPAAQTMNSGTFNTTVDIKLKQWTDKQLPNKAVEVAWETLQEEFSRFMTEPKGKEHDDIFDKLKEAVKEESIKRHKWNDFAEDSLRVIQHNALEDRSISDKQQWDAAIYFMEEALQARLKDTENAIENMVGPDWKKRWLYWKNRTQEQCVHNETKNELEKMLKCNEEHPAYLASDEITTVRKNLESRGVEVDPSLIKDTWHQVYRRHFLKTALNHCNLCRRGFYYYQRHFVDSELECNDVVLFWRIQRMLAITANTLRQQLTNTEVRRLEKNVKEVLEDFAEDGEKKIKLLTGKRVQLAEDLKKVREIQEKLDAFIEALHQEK

Experiment [8] addresses Platelet-derived growth factor receptor beta (Homo sapiens, UniProt P09619).
Experiment [9] deals with Protein kinase C alpha type (Homo sapiens, UniProt P17252).
In experiment [10] the target is Serine/threonine-protein kinase 16 (Homo sapiens, UniProt O75716).
Sequence of Serine/threonine-protein kinase 16 (O75716 whole entry): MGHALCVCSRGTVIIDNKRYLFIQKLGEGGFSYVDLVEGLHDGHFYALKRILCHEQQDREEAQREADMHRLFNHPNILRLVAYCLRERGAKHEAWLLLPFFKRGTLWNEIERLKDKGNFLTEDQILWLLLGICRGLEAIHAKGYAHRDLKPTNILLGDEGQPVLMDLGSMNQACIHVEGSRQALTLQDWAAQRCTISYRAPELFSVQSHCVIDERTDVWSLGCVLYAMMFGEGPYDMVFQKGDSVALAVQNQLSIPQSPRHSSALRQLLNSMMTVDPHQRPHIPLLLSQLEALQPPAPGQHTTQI
The target of experiment [11] is Serine/threonine-protein kinase 26 (Homo sapiens, UniProt Q9P289).
Sequence of Serine/threonine-protein kinase 26 (Q9P289 whole entry): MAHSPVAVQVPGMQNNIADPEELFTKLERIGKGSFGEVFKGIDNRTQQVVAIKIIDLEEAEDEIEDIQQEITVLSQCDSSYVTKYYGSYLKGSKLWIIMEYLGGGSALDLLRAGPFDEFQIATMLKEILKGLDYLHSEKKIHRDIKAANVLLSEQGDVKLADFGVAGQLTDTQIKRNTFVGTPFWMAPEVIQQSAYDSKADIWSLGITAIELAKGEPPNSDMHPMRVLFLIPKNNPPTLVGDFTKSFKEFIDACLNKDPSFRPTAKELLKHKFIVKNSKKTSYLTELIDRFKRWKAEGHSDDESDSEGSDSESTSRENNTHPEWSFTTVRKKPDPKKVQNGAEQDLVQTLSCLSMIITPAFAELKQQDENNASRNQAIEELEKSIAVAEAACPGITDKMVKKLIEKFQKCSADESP
Experiment [12] deals with Adenosine kinase (Homo sapiens, UniProt P55263).
Sequence of Adenosine kinase (P55263 whole entry): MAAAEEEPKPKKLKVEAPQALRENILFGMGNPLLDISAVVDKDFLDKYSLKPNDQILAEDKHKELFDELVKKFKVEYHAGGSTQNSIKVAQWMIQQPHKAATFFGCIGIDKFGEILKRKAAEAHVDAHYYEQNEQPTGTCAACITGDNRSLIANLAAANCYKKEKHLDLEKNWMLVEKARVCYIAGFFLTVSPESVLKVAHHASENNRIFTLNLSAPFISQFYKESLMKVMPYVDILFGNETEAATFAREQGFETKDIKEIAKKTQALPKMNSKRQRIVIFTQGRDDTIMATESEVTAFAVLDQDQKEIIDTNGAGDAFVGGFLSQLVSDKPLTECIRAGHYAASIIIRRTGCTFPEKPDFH
Experiment [13] deals with GTP-binding nuclear protein Ran (Homo sapiens, UniProt P62826).
Experiment [14] addresses U5 small nuclear ribonucleoprotein 200 kDa helicase (Homo sapiens, UniProt O75643).
Note: in the data inactive means no Kd found up to 30 µM.

Sequence of Platelet-derived growth factor receptor beta (P09619 whole entry): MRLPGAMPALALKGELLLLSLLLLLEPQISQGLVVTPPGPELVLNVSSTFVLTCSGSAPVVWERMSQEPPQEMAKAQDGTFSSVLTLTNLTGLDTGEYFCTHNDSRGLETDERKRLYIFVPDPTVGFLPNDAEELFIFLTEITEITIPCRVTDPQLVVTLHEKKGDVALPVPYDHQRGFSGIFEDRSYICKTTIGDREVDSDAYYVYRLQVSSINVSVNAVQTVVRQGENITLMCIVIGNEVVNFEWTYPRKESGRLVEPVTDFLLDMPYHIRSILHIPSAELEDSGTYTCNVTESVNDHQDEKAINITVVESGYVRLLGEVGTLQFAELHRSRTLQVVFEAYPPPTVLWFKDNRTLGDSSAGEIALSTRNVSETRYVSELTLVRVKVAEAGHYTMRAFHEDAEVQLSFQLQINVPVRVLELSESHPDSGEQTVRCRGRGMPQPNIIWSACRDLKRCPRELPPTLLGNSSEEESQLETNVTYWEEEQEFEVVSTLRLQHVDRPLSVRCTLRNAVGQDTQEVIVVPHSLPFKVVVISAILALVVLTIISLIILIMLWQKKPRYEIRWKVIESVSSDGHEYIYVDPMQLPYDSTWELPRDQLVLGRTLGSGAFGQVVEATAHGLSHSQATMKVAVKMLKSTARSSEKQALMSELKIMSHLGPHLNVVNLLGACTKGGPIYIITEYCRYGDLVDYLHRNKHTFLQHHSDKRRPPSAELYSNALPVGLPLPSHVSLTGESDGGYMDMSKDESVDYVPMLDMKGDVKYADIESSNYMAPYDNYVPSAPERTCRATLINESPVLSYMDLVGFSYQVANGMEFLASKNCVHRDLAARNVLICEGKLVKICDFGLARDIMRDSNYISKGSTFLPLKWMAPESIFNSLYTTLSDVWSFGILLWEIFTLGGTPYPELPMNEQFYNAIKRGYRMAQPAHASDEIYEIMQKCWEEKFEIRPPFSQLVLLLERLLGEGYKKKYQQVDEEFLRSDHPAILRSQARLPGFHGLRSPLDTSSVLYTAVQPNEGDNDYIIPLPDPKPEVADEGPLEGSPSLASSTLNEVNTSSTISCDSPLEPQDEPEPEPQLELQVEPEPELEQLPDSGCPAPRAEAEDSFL
Sequence of Bone morphogenetic protein receptor type-1B (O00238 whole entry): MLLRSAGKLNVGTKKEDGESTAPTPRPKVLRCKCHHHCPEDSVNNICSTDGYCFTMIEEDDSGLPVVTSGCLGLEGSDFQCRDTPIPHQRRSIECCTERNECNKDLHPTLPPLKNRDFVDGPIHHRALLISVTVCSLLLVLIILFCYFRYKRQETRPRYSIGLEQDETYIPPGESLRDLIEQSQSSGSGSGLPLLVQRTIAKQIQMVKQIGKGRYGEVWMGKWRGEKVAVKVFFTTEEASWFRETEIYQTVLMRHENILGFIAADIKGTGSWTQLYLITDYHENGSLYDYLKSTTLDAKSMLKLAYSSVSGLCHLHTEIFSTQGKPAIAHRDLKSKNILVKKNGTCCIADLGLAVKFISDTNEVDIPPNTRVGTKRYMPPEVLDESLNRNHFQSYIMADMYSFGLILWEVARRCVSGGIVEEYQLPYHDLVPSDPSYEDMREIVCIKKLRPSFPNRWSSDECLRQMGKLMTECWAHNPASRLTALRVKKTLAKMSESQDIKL

In the case of `Cn1ncc(Cl)c1-c1cc(C(=O)N[C@H](CN)Cc2cccc(F)c2)sc1Cl` [AFURESERTIB], the Kd in [1], in [2], in experiment [3], in [4], in experiment [5] and in experiment [6] was > 30 µM (inactive) in each case. Further, the Kd is > 30 µM (inactive) in experiment [7]; > 30 µM (inactive) in [8]; 21.4 µM (active) in [9]; > 30 µM (inactive) in experiment [10]; > 30 µM (inactive) in experiment [11].

For `COC(=O)[C@@]1(O)C[C@H]2O[C@]1(C)n1c3ccccc3c3c4c(c5c6ccccc6n2c5c31)C(=O)NC4` [K-252A], the Kd in [1] is > 30 µM (inactive); in experiment [12], > 30 µM (inactive); in [2], > 30 µM (inactive); in [3] it was > 30 µM (inactive); in experiment [4], 0.455 µM (active); in experiment [5], 0.009 µM (active). Further, the Kd is > 30 µM (inactive) in [7]; 1.01 µM (active) in experiment [8]; > 30 µM (inactive) in experiment [13]; > 30 µM (inactive) in experiment [14]; > 30 µM (inactive) in experiment [10]; > 30 µM (inactive) in [11].

With `CNS(=O)(=O)Nc1nccc(Cc2c(C)c3ccc(Oc4ncccn4)cc3oc2=O)c1F` [AVUTOMETINIB], the Kd in experiment [1], in experiment [12], in experiment [2], in experiment [3], in [4] and in experiment [5] was > 30 µM (inactive) throughout. Also, the Kd in experiment [6], in [7], in experiment [8], in [9], in experiment [13] and in [14] was > 30 µM (inactive) throughout. For the same compound, the Kd in experiment [10] is > 30 µM (inactive).

On to `Cc1c(F)cc(C(=O)NC2CC2)cc1-c1ccc(C(=O)NCC(C)(C)C)cn1` [LOSMAPIMOD], for which the Kd in experiment [1], in experiment [12], in experiment [2], in [3], in experiment [4] and in [5] was > 30 µM (inactive) in each case. Also, the Kd in [6], in experiment [7], in experiment [8], in [9], in experiment [10] and in experiment [11] was > 30 µM (inactive) throughout.

As for `COc1cc(CCc2cc(NC(=O)c3ccc(N4C[C@@H](C)N[C@@H](C)C4)cc3)n[nH]2)cc(OC)c1` [AZD-4547], the Kd in [1], in [12], in experiment [2], in [3], in experiment [4] and in experiment [5] was > 30 µM (inactive) in each case. The Kd in experiment [6] was > 30 µM (inactive); in experiment [7], > 30 µM (inactive); in experiment [8], 0.288 µM (active); in [9] it was > 30 µM (inactive); in experiment [13], > 30 µM (inactive); in experiment [14] it was > 30 µM (inactive). The Kd in experiment [10] is > 30 µM (inactive).

For the compound `CNC(=O)c1cc(Oc2ccc(NC(=O)Nc3ccc(Cl)c(C(F)(F)F)c3)c(F)c2)ccn1` [REGORAFENIB], the Kd in experiment [1], in experiment [12], in [2], in experiment [3], in [4] and in experiment [5] was > 30 µM (inactive) in each case. The Kd in [6], in experiment [7], in [9], in experiment [13], in experiment [14] and in experiment [10] was > 30 µM (inactive) each time. Also, the Kd in [11] was > 30 µM (inactive).

As for `CC[C@H](Nc1ncnc2[nH]cnc12)c1nc2cccc(F)c2c(=O)n1-c1ccccc1` [IDELALISIB], the Kd in experiment [1], in experiment [12], in experiment [2], in experiment [3], in experiment [4] and in [5] was > 30 µM (inactive) throughout. In addition, the Kd in experiment [6], in experiment [7], in [8], in experiment [9], in experiment [10] and in experiment [11] was > 30 µM (inactive) in each case.

Consider `CN1N=C(N)c2cn([C@@H]3O[C@H](COP(=O)(O)O)[C@@H](O)[C@H]3O)c3ncnc1c23` [TRICIRIBINE PHOSPHATE], for which the Kd in experiment [1], in experiment [12], in [3], in experiment [4], in [5] and in experiment [6] was > 30 µM (inactive) in each case. The Kd in experiment [7], in experiment [8], in [9], in experiment [13], in experiment [14] and in experiment [10] was > 30 µM (inactive) throughout. In addition, the Kd in experiment [11] was > 30 µM (inactive).
